Measurements as given in patent US20060019971A1, “Treatment of cardiovascular disease with inhibitors of p38 kinase” (priority 2003, published 2006).

Key:
[1] = biological target: T1, p38 MAP kinase (Homo sapiens, UniProt Q16539); assay: p38 MAP kinase phosphorylation assay (similar to Kumar); format: biochemical; conditions: assay similar to the phosphorylation assay (Kumar)
T1 construct: expressed in transfected cells; kinase immunoprecipitated from lysates
Procedure: Alternative assays involving in vitro analysis of potential inhibitors include those where cells (HeLa) transfected with DNA coding for relevant kinases can be activated with substances such as sorbitol, IL-1, TNF, or PMA (phorbol myristate acetate). After immunoprecipitation of cell lysates, equal aliquots of immune complexes of the kinases are pre-incubated for an adequate time with a specific concentration of the potential inhibitor followed by addition of kinase substrate buffer mix containing labeled ATP and GST-ATF2 or MBP. After incubation, kinase reactions are ceased by the addition of SDS loading buffer. Phosphorylated substrate is resolved through SDS-PAGE and visualized and quantitated in a phosphorimager. Both p38 regulation, in terms of phosphorylation, and IC50 values can be determined by quantitation. See, for example Kumar,S., McDonnell, P., Gum, R., Hand, A., Lee, J., and Young, P. (1997) Biochem. Biophys. Res. Commun. 235, 533-538.

[2] = test system: IL-1β mRNA in HPBMCs; assay: IL-1β gene expression in HPBMCs, real-time PCR; format: cell-based, human; conditions: 1 μM SD, 2 hrs
Procedure: (§1) 5×10^6 HPBMCs were plated in 6-well. After 1 hour medium was removed and cells were treated with vehicle or 1μM p38 inhibitor in RPMI 1640 medium. After 1 hour cells were stimulated with 10% FCS only or 10 μg/ml CRP plus 10% FCS. After 6 hours conditioned medium was collected and IL-1b and TNFa levels were determined by ELISA. […] 5×10^6 HPBMCs were plated in 6-well. After I hour medium was removed and cells were treated with vehicle or […] p38 inhibitor in RPMI 1640 medium. After 1 hour cells were stimulated with 10% FCS only or 10 μg/ml CRP plus 10% FCS. After 2 hours RNA was extracted from the cells and TNFa (c) and IL-1b (d) expression levels were determined by real-time PCR as described in the Experimental section. […]
RNA was extracted from the cells using Qiagen RNA extraction kit according to the manufacturer's instruction. The expression of pro-inflammatory genes IL-1β, IL-6, IL-8, TNFα, COX-2, ET-1, TF were assessed by real-time PCR. […]
Real-time RT-PCR was performed in a two-step manner. cDNA synthesis and real-time detection were carried out in a PTC-100™ Thermal Cycler (MJ Research Inc, Waltham, Mass.) and an ABI Prism™ 7700 Sequence Detection System (Applied Biosystems, Foster City, Calif.), respectively. […] Relative quantitation of gene expression was performed using the relative standard curve method. […]

[3] = test system: TNFα secretion from HPBMCs; assay: TNFα secretion from HPBMCs, ELISA; format: cell-based, human; conditions: 1 μM SD, 6 hours
Procedure: as §1
Conditioned media from the treated cells were collected (6 to 20 hrs), and the level of secreted interleukin 6 (IL-6), interleukin 1 beta (IL-1 β), tumor necrosis factor alpha (TNFα), and interleukin 8 (IL-8) was determined by ELISA according to the manufacturer's instruction (Biosource International, Camarillo, Calif.). […]
TNFα and IL-β are initial inflammatory cytokines produced when monocytes are activated during infalmmation. […] HPBMCs were incubated with either 10% FCS or CRP plus 10% FCS for 6 hours and secreted cytokines TNFα and IL-1β were measured by ELISA. […]

T1 sequence (Q16539 whole entry): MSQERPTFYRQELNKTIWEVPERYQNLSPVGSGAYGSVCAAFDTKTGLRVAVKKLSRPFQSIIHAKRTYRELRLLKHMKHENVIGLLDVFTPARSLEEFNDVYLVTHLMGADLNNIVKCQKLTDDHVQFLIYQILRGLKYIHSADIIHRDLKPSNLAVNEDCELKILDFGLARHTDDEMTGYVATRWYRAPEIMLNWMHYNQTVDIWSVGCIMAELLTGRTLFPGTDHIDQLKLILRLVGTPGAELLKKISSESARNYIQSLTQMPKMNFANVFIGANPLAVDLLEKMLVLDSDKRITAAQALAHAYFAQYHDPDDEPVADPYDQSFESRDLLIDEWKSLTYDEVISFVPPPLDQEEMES

Q: With C[C@@H]1CN(Cc2ccc(F)cc2)[C@@H](C)CN1C(=O)c1cc2c(C(=O)C(=O)N(C)C)c[nH]c2cc1Cl [Compound 162] as the compound, how does the “p38 MAP kinase activity” value [1] read?
A: exhibit p38 MAP kinase activity

Q: What about the “inhibition of FCS induced expression of IL-1β gene” value [2] of the same compound?
A: attenuated

Q: What about the “FCS induced TNFα secretion, sensitivity to p38 inhibition” value ([3]; 10% FCS) of the same compound?
A: sensitive

Q: What about the “inhibition of CRP-invoked TNFα secretion” value ([3]; CRP plus 10% FCS) of the same compound?
A: strongly inhibited
